Assay [1] addresses Casein kinase I isoform alpha (Homo sapiens) (UniProt P48729). In words: Inhibition of CK1alpha Lys2 labeling site in human Huh-7 cell lysate at 1 uM by KiNativ Profiling analysis relative to control. It is filed as subcellular.
The target in assay [2] is TRAF2 and NCK-interacting protein kinase (Homo sapiens) (UniProt Q9UKE5). In words: Inhibition of ZC2/TNIK Lys2 labeling site in human Huh-7 cells at 1 uM by KiNativ Profiling analysis relative to control. It is filed as cell-based.
Assay [3] has as its target T1, Receptor-interacting serine/threonine-protein kinase 4 (Homo sapiens) (UniProt P57078).
T1 sequence (whole entry): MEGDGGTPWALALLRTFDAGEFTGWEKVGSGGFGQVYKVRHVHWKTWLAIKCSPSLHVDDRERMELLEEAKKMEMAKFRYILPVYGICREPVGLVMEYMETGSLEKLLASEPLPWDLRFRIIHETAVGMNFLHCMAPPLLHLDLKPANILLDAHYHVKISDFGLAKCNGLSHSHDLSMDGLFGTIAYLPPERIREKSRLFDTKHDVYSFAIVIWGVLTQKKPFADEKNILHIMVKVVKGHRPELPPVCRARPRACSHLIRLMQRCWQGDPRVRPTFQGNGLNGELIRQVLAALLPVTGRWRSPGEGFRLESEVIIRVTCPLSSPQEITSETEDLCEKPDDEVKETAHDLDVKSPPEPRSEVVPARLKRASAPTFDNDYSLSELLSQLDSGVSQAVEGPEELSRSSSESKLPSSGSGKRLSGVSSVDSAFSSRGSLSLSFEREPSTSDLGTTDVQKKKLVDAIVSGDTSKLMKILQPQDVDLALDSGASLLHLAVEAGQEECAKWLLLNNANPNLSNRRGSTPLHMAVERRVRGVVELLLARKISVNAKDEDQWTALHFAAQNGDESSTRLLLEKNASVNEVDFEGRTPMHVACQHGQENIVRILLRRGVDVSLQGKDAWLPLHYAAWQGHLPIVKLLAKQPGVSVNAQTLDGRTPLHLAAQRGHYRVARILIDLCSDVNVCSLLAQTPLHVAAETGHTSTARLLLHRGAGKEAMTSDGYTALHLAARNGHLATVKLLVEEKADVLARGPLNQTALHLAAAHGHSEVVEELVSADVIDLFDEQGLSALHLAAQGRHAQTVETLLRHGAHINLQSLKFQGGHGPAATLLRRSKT
In words: Inhibition of RIPK4 (unknown origin) at 1 uM by Ambit Kinomescan binding assay relative to control.

In assay [4] the target is Wee1-like protein kinase (Homo sapiens) (UniProt P30291). In words: Inhibition of WEE1 (unknown origin) at 1 uM by Ambit Kinomescan binding assay relative to control.
Assay [5] concerns the target Muscle, skeletal receptor tyrosine-protein kinase (Homo sapiens) (UniProt O15146). In words: Inhibition of MUSK (unknown origin) at 1 uM by Ambit Kinomescan binding assay relative to control; values are per cent of control.
The target of assay [6] is LIM domain kinase 2 (Homo sapiens) (UniProt P53671). Nature of the assay: Inhibition of LIMK2 (unknown origin) at 1 uM by Ambit Kinomescan binding assay relative to control; values are per cent of control.
Assay [7] addresses T2, Eukaryotic elongation factor 2 kinase (Homo sapiens) (UniProt O00418).
T2 sequence (whole entry): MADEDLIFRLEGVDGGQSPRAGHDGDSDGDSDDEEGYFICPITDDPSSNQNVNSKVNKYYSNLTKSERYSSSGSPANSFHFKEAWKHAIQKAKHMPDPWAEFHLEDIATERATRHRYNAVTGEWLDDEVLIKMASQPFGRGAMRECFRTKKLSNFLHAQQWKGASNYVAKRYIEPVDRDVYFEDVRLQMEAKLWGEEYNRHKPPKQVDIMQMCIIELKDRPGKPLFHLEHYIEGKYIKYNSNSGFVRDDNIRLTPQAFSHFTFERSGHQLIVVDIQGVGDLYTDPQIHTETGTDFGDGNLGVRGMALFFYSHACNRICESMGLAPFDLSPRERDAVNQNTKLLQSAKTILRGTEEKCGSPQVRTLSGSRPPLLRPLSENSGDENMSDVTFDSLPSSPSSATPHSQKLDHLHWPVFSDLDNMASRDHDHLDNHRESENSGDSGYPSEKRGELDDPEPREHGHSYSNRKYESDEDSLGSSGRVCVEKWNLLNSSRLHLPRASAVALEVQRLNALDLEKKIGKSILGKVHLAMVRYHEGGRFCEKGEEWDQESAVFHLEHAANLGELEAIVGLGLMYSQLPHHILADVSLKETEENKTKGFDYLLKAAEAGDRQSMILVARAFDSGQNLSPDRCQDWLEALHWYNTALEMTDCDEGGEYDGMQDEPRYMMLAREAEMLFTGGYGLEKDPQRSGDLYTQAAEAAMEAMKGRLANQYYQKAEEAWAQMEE
Nature of the assay: Inhibition of eEF2K ATP labeling site harbouring YIKYNSNSGFVR in human A-375 cells at 0.05 uM by KiNativ Profiling analysis relative to control. It counts as cell-based.

The target of assay [8] is T3, Serine/threonine-protein kinase Chk1 (Homo sapiens) (UniProt O14757).
T3 sequence (whole entry): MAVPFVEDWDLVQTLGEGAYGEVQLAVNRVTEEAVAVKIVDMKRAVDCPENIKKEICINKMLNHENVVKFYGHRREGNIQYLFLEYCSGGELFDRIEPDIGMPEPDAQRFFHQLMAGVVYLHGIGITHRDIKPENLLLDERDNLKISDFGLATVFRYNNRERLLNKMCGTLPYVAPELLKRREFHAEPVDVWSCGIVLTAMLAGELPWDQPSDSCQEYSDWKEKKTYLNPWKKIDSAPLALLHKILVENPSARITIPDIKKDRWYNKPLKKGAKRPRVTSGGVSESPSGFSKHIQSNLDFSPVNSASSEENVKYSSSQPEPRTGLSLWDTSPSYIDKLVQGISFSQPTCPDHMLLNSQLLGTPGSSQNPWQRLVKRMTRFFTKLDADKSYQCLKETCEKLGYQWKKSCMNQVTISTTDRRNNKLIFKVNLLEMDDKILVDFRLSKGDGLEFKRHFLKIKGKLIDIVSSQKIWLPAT
In words: Inhibition of CHK1 in human Huh-7 cells at 10 uM by KiNativ Profiling analysis relative to control. It counts as cell-based.

For assay [9], the target named is Mitogen-activated protein kinase kinase kinase 1 (Homo sapiens) (UniProt Q13233). Nature of the assay: Inhibition of MAP3K1 Lys2 labeling site in human A-375 cells at 5 uM by KiNativ Profiling analysis relative to control. It counts as cell-based.
The target of assay [10] is Activated CDC42 kinase 1 (Homo sapiens) (UniProt Q07912). Nature of the assay: Inhibition of ACK Lys1 labeling site in human A-375 cells at 5 uM by KiNativ Profiling analysis relative to control. It is filed as cell-based.
In assay [11] the target is Serine/threonine-protein kinase 10 (Homo sapiens) (UniProt O94804). Nature of the assay: Inhibition of LOK K2 labeling site harbouring DLKAGNVLMTLEGDIR in human Huh-7 cells at 10 uM by KiNativ Profiling analysis relative to control. It counts as cell-based.
Assay [12] can be described thus: Inhibition of KHS1/2 K2 labeling site in human Huh-7 cells at 1 uM by KiNativ Profiling analysis relative to control. To be noted: condition cancer.

Sequence of Mitogen-activated protein kinase kinase kinase 1 (Homo sapiens) (Q13233 whole entry): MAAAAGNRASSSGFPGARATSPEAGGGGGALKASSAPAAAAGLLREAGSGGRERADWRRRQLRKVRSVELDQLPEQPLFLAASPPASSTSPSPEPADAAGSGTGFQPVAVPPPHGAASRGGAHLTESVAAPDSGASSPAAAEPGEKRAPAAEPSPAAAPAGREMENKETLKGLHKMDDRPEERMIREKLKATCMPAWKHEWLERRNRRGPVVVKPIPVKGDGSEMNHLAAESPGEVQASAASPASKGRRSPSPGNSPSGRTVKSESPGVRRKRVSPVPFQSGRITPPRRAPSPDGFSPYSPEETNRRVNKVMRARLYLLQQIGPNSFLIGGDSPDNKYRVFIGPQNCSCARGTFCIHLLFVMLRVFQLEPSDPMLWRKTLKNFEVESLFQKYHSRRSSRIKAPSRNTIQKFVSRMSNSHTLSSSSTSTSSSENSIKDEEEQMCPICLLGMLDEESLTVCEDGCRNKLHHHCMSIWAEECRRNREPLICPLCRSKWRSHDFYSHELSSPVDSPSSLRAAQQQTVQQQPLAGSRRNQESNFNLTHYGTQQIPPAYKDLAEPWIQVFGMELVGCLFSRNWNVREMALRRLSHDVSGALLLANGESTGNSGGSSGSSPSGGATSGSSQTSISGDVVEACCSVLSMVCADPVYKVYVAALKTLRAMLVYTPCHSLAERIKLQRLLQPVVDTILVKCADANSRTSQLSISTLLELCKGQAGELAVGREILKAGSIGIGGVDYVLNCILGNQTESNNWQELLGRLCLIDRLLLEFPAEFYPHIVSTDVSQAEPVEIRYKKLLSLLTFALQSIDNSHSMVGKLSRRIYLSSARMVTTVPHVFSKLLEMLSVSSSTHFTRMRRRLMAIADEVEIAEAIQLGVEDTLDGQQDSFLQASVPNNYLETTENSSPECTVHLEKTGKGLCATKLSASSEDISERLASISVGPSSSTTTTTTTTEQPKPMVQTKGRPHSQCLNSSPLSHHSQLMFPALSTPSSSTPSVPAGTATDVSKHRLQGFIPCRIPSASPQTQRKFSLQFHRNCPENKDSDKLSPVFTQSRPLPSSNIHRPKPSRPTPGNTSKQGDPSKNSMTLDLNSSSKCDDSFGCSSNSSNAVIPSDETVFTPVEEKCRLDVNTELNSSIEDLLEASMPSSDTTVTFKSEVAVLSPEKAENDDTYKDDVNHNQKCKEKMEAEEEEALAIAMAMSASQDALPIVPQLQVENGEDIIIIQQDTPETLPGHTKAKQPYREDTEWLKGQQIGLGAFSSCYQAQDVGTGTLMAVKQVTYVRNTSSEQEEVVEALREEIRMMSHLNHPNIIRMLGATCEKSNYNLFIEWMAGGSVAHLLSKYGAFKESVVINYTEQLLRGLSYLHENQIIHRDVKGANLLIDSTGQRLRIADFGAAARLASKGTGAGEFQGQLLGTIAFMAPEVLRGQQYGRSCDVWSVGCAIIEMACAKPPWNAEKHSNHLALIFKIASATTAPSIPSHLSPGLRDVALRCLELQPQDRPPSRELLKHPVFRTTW
Sequence of Serine/threonine-protein kinase 10 (Homo sapiens) (O94804 whole entry, looked up): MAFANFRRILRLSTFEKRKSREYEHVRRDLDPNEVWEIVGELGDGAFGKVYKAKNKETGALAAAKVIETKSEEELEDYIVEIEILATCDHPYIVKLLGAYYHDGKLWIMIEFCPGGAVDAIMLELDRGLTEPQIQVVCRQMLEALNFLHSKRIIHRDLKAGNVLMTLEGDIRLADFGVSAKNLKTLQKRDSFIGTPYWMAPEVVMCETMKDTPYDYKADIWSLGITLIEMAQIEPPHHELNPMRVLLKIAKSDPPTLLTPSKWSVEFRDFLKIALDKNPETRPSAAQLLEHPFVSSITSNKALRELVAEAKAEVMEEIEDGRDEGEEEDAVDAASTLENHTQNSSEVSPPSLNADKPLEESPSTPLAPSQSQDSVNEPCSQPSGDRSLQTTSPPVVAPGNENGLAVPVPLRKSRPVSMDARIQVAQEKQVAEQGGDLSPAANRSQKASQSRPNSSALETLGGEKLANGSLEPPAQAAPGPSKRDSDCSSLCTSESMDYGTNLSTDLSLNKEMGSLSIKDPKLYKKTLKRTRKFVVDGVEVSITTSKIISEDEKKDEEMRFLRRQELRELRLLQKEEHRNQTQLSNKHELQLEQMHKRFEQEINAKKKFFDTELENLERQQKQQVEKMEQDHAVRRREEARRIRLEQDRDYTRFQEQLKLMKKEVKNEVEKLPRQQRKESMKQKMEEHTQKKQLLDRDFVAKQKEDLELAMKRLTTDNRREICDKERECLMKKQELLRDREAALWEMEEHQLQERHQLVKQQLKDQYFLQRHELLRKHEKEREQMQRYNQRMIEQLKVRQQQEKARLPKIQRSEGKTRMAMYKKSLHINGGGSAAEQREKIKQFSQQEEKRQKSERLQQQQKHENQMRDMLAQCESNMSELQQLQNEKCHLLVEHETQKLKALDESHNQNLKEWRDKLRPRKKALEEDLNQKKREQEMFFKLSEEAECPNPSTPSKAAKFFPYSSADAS
Sequence of Wee1-like protein kinase (Homo sapiens) (P30291 whole entry, looked up): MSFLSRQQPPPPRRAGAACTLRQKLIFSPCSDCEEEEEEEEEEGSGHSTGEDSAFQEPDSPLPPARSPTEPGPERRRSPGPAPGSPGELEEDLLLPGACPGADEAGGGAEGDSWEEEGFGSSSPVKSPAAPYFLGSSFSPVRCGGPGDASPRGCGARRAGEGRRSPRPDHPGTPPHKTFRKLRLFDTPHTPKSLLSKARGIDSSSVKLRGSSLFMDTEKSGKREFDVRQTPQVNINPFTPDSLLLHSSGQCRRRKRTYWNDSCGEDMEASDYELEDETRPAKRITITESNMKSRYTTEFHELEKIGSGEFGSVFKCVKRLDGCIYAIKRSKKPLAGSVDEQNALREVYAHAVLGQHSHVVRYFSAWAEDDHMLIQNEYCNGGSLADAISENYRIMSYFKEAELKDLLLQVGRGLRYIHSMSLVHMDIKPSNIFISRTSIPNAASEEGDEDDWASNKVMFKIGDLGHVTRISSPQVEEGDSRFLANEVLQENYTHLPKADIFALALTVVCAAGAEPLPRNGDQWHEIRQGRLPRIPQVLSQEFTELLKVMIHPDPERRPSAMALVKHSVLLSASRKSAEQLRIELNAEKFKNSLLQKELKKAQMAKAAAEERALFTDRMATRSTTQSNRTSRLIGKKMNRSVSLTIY
Sequence of Casein kinase I isoform alpha (Homo sapiens) (P48729 2-337 limits assumed): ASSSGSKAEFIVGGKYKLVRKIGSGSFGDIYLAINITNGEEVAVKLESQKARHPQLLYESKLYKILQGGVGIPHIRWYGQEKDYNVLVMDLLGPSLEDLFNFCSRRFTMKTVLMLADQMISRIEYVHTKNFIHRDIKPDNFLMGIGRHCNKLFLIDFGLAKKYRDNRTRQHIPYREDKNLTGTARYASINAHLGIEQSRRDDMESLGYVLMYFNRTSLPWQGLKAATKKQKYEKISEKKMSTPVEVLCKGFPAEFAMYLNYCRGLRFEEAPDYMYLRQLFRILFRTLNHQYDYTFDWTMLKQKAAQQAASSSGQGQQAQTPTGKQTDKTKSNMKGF
Sequence of Activated CDC42 kinase 1 (Homo sapiens) (Q07912 whole entry, looked up): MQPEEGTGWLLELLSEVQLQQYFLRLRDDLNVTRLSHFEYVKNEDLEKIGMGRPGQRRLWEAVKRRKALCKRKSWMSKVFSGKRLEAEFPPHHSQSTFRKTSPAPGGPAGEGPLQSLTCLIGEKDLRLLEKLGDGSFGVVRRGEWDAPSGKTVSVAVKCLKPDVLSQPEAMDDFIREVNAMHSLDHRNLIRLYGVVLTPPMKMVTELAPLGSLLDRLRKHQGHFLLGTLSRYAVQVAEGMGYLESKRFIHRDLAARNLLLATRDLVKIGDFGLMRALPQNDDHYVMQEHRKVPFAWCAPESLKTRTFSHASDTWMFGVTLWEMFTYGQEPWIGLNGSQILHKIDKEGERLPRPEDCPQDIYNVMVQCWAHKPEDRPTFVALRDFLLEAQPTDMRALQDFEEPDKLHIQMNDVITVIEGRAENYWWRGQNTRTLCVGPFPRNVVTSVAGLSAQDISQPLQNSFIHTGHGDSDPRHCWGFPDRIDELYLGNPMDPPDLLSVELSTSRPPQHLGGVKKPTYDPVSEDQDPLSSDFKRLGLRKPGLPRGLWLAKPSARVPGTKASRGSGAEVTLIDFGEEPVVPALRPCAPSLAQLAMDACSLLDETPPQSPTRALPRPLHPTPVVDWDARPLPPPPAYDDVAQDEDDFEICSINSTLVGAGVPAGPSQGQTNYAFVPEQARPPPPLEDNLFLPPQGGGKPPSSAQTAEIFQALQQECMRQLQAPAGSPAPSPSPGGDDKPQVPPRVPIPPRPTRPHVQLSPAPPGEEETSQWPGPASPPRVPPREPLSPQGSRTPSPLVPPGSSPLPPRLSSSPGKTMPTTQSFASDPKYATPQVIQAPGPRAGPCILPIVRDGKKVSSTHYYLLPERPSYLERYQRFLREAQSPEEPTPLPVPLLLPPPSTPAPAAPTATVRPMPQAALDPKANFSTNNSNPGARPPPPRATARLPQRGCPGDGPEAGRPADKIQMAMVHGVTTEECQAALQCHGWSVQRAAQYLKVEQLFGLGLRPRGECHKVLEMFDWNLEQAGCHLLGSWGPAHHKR

As for `CNc1cc(Oc2cc(C(=O)Nc3cc(N4CCN(C)CC4)cc(C(F)(F)F)c3)ccc2C)ncn1`, the inhibition (as a rule, the share of the control response that was lost under treatment) was determined as 3.8% in assay [1] and 9.7% in [2].

Turning to `CCN1CCN(Cc2ccc(NC(=O)c3ccc(C)c(/C=C/c4cnc5[nH]ccc5c4OC)c3)cc2C(F)(F)F)CC1`, the inhibition in assay [3] and in assay [4] was 100% each time. Further, the residual activity (commonly what remains of the control signal, in per cent) in assay [5] is 2%; in assay [6] it was 26%.

For the compound `CCN1CCN(Cc2ccc(NC(=O)c3ccc(C)c(Oc4ccnc5[nH]ccc45)c3)cc2C(F)(F)F)CC1`, the inhibition in assay [7] turned out to be 12.7%; in [8], 12.3%; in assay [9] it was 83.9%; in [10], 6.1%; in assay [11], 13.5%. In [12], this compound came in with an inhibition at 1 µM of 6.6%.

The record behind these values is ChEMBL document CHEMBL5696442, “Discovery of type II inhibitors of TGFβ-activated kinase 1 (TAK1) and mitogen-activated protein kinase kinase kinase kinase 2 (MAP4K2)” (J Med Chem, 2015).
